Laboratory results reported in the supplement of paper PMC12463676, “Small-molecule dissolution of stress granules by redox modulation benefits ALS models” (Nature Chemical Biology, 2025).

Key:
[1] = compound: O=[As]([O-])(O)O.[K+] [potassium arsenate]; test: thermal stability z-score vs DMSO; higher = more thermally stabilized by treatment; conditions: HeLa; arsenate concentration 1 mM
Method: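 Cellular thermal proteome profiling in HeLa cells treated with 1 mM arsenate for 1 h (DMSO pretreatment), heated to ten temperatures (37-66.3 °C). Soluble protein was quantified by TMT mass spectrometry relative to DMSO controls; the thermal stability score was transformed to a z-score; mean of n = 3 experiments.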

[2] = compound: NC(=O)CCCCC1CCSS1 [lipoamide]; test: as above; conditions: HeLa, lipoamide concentration 100 µM
Method: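 Cellular thermal proteome profiling in HeLa cells. Cells were treated with 100 µM lipoamide for 1 h, with or without 1 mM arsenate for a further 1 h, then heated to ten temperatures (37-66.3 °C), and soluble protein was quantified by TMT mass spectrometry relative to 0.1% DMSO controls. The thermal stability score (sum of log2 fold changes minus the abundance score) was transformed to a z-score; mean of n = 3 experiments.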

[3] = arsenate co-treatment: 1 mM arsenate 1 h
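Also: each temperature applied for 3 min, abundance score taken as mean log2 fold change at the two lowest temperatures, z-score obtained by mean subtraction and division by SD.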

Chain of UniProt Q9H089 (Q9H089 whole entry): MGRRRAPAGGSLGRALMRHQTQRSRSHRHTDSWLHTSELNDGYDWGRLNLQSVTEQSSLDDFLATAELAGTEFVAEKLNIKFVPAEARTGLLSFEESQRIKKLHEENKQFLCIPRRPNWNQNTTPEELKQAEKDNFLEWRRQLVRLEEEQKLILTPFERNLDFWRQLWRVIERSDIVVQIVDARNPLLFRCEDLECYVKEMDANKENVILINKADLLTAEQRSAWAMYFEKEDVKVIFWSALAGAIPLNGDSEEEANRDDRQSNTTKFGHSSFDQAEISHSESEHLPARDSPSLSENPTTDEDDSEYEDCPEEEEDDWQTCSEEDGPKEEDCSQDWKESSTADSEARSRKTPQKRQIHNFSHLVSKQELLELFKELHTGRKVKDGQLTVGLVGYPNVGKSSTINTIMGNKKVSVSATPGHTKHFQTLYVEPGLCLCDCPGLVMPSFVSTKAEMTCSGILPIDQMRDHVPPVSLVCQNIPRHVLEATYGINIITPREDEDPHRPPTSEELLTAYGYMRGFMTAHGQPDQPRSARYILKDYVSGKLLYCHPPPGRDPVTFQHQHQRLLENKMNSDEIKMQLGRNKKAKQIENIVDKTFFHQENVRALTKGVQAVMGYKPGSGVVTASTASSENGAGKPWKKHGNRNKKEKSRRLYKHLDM
Chain of UniProt Q9Y255 (Q9Y255 whole entry): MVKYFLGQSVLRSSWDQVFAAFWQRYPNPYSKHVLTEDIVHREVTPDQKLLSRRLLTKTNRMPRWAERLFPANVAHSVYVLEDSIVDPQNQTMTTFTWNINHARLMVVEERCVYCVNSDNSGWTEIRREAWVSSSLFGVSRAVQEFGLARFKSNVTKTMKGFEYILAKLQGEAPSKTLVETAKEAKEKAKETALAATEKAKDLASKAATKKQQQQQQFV
Chain of UniProt Q10567 (Q10567 whole entry): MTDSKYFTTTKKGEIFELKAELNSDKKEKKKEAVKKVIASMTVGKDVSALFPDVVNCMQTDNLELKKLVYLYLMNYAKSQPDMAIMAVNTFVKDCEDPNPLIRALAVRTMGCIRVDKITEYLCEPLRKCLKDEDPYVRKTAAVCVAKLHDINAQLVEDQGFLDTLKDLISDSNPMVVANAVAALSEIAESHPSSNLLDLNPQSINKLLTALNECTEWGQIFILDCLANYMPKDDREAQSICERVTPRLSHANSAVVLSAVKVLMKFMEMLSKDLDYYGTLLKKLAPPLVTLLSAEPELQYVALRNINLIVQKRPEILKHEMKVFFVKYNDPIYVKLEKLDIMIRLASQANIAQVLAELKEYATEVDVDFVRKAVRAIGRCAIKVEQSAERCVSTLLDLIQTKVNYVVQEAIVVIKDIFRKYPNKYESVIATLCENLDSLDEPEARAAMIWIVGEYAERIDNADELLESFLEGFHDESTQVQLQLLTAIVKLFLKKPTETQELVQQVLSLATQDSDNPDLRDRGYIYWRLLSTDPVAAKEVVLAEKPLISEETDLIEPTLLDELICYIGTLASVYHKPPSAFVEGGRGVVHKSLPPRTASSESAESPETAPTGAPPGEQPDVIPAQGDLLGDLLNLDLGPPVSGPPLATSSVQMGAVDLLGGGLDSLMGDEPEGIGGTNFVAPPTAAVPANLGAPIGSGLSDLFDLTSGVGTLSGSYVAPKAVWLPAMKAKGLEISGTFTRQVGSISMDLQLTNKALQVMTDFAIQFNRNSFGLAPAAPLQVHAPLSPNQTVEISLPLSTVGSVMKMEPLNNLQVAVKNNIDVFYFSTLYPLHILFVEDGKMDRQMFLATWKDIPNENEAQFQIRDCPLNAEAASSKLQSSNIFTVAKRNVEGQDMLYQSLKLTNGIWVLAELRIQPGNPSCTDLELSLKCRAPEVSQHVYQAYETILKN
Chain of UniProt Q96C01 (Q96C01 whole entry): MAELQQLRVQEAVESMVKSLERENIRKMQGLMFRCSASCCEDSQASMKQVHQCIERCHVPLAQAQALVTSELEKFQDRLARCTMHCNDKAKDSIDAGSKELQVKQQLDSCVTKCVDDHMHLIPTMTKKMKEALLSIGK
Chain of UniProt Q13151 (Q13151 whole entry): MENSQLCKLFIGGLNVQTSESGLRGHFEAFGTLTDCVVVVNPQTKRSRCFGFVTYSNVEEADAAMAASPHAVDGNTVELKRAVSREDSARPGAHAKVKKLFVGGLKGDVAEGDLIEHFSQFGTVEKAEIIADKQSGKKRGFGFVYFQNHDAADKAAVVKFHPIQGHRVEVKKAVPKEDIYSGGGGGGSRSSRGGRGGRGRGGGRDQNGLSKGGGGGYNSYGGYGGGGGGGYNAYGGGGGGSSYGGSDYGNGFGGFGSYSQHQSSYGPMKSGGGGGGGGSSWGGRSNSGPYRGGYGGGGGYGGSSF
Chain of UniProt Q69YQ0 (Q69YQ0 whole entry): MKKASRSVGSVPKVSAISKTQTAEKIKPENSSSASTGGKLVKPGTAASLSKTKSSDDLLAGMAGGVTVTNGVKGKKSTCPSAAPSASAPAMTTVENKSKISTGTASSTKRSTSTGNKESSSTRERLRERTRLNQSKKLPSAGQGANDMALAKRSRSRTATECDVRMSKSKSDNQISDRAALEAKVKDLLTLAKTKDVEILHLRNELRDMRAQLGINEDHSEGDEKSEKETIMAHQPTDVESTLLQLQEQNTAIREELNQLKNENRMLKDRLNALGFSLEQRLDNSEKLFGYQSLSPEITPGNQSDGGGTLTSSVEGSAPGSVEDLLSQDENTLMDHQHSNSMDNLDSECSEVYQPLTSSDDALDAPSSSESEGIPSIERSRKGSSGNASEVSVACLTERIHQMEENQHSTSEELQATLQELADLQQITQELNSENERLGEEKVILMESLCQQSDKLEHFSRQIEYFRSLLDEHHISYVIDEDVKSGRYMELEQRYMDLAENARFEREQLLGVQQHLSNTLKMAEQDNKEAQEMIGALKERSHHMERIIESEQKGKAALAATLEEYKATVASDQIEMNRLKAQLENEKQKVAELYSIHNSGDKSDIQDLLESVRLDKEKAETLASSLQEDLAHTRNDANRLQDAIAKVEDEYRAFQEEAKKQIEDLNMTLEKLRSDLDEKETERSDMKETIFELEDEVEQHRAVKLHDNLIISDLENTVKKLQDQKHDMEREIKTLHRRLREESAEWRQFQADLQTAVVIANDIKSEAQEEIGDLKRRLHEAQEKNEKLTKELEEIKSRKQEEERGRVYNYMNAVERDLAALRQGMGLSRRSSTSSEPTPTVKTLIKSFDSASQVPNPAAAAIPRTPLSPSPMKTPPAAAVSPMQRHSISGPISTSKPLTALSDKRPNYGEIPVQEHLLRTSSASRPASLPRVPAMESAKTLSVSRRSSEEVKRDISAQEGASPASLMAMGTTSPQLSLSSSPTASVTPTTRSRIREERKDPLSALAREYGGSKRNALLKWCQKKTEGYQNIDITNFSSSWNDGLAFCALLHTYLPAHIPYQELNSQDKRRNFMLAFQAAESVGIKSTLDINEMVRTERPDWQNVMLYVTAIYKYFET
Chain of UniProt Q9BVL2 (Q9BVL2 whole entry): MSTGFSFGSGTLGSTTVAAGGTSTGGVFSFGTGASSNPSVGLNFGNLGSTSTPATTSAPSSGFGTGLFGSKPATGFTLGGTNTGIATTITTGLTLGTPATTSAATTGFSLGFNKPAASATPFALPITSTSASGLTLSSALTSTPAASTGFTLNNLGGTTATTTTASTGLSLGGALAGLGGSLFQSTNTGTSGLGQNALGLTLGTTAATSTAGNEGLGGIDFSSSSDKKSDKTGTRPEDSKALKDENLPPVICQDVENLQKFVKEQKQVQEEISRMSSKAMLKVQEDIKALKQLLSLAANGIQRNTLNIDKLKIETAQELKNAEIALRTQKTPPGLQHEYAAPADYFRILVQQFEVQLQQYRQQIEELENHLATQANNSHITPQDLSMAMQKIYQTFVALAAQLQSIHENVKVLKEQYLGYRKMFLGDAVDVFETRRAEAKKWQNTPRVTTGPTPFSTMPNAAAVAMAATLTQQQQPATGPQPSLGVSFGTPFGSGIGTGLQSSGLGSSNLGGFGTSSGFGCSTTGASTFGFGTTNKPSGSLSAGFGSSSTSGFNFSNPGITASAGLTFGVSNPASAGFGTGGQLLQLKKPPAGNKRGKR
Chain of UniProt Q9BU76 (Q9BU76 whole entry): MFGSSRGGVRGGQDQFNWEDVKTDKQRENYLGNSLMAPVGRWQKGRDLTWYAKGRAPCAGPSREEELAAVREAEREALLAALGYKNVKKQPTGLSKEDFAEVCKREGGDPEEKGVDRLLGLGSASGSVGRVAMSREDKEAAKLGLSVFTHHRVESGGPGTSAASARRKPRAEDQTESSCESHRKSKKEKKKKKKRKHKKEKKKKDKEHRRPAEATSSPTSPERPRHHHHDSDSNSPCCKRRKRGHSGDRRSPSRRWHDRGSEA
Chain of UniProt Q9H1C4 (Q9H1C4 whole entry): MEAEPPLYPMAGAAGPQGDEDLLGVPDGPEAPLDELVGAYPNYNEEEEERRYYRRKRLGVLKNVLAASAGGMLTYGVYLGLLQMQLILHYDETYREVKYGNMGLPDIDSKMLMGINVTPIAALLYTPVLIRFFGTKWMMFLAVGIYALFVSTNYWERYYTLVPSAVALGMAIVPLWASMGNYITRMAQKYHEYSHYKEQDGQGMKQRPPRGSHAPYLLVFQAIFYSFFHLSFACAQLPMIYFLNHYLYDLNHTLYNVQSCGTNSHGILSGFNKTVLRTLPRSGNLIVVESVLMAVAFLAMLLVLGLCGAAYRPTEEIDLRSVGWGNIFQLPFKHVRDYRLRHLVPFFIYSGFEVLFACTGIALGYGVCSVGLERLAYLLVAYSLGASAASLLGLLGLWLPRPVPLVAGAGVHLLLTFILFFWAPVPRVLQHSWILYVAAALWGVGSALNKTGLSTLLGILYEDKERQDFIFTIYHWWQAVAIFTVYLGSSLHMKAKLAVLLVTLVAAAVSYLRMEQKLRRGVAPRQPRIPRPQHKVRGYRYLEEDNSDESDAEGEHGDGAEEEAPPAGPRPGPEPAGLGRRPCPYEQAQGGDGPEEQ
Chain of UniProt O75347 (O75347 whole entry): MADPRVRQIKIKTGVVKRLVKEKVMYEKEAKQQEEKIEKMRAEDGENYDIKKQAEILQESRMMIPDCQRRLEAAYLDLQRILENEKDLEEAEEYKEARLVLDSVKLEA

Target	thermal stability z-score [1]	thermal stability z-score [2, 3]	thermal stability z-score ([2]; arsenate co-treatment: none)
GBA (UniProt P04062)	0.33	-0.361	-0.352
PDE4D (UniProt Q08499)	0.101	0.651	0.623
SETMAR (UniProt Q53H47)	-0.122	-0.298	-0.25
STAT2 (UniProt P52630)	0.171	-0.0423	0.0157
CS (UniProt O75390)	0.561	-0.341	0.0055
RNF31 (UniProt Q96EP0)	-0.255	-0.101	0.0489
KIAA0319L (UniProt Q8IZA0)	-0.349	0.936	0.43
FAM136A (UniProt Q96C01)	-1.98	1.12	0.665
DNAJB1 (UniProt P25685)	0.294	0.448	0.397
ICT1 (UniProt Q14197)	-0.225	-0.321	-0.282
RFC3 (UniProt P40938)	-0.0936	-0.548	-0.365
LY6K (UniProt Q17RY6)	2.42	-3.06	-2.7
SF3A1 (UniProt Q15459)	-1.3	-0.152	0.106
TSR2 (UniProt Q969E8)	0.317	0.33	0.0774
METTL16 (UniProt Q86W50)	-0.0708	-0.248	-0.347
C1QBP (UniProt Q07021)	-1.28	-0.549	0.0636
NBEAL1 (UniProt Q6ZS30)	-0.119	0.108	-0.0292
SNRPGP15|SNRPG	0.296	1.63	0.677
TMED7 (UniProt Q9Y3B3)	0.0944	-0.983	-0.909
CORO1C (UniProt Q9ULV4)	1.13	-1.05	-0.614
DCTD (UniProt P32321)	-0.736	0.038	-0.504
ATP6V1H (UniProt Q9UI12)	-0.0897	0.0391	-0.146
MECR (UniProt Q9BV79)	0.152	0.217	-0.251
RBM42 (UniProt Q9BTD8)	-0.098	0.952	0.152

Target	thermal stability z-score [1]	thermal stability z-score [2, 3]	thermal stability z-score ([2]; arsenate co-treatment: none)
SPECC1L (UniProt Q69YQ0)	1.47	1.12	1.43
CDC45 (UniProt O75419)	-0.457	0.0843	0.0302
API5 (UniProt Q9BZZ5)	0.0226	0.11	0.124
PRELID1 (UniProt Q9Y255)	-0.054	0.0933	-0.2
DIAPH1 (UniProt O60610)	-0.58	0.466	0.801
HNRNPA0 (UniProt Q13151)	-0.778	-1.04	-0.776
C12ORF29 (UniProt Q8N999)	-1.5	0.423	-0.117
CCAR2 (UniProt Q8N163)	0.358	-0.42	-0.615
COG8 (UniProt Q96MW5)	0.149	0.022	0.151
AP1B1 (UniProt Q10567)	0.425	0.216	0.0123
YIPF4 (UniProt Q9BSR8)	-0.689	0.0431	-0.44
ARHGEF11 (UniProt O15085)	0.14	-0.0428	0.152
AKAP8 (UniProt O43823)	-0.946	0.701	-0.426
CLPP (UniProt Q16740)	0.151	0.049	-0.299
SMARCA2 (UniProt P51531)	-0.174	-0.0738	-0.0901
IDH3A (UniProt P50213)	-1.11	-0.0281	-0.439
FOXK1 (UniProt P85037)	1.86	0.345	-0.0499
CHCHD3 (UniProt Q9NX63)	0.417	0.334	0.581
SNX2 (UniProt O60749)	0.364	-0.0255	0.0641
TNS1 (UniProt Q9HBL0)	-0.162	-0.0135	-0.0322
SHKBP1 (UniProt Q8TBC3)	-0.372	0.0505	0.242
LSG1 (UniProt Q9H089)	3.55	-0.18	0.17
SRSF9 (UniProt Q13242)	0.0934	2.14	0.947
SRPK2 (UniProt P78362)	0.168	0.467	-0.365

Target	thermal stability z-score [1]	thermal stability z-score [2, 3]	thermal stability z-score ([2]; arsenate co-treatment: none)
MRPL23 (UniProt Q16540)	0.525	0.205	0.755
DIP2B (UniProt Q9P265)	-0.222	0.206	0.147
SYNCRIP (UniProt O60506)	-0.00709	0.0582	0.179
UNC93B1 (UniProt Q9H1C4)	0.487	0.172	-0.000713
EIF3E (UniProt P60228)	-0.113	-0.192	0.126
NAA30 (UniProt Q147X3)	-0.43	-0.282	0.317
NUP58 (UniProt Q9BVL2)	0.865	2.2	0.178
MMTAG2 (UniProt Q9BU76)	0.188	2.29	0.684
DUS1L (UniProt Q6P1R4)	0.0119	0.178	-0.547
PRKAG1 (UniProt P54619)	0.942	0.174	0.0278
MON2 (UniProt Q7Z3U7)	0.63	0.0206	0.307
TBCA (UniProt O75347)	0.264	0.458	1.12
MTPN (UniProt P58546)	-0.432	0.382	0.145
FAM21A (UniProt Q641Q2)	0.352	0.0165	-0.365
YBX3 (UniProt P16989)	-0.672	0.153	-0.0445
EXOG (UniProt Q9Y2C4)	0.587	-0.359	-0.451
FARS2 (UniProt O95363)	-0.701	-0.386	-0.359
UNG (UniProt P13051)	-0.665	-0.772	-1.08
GOLPH3L (UniProt Q9H4A5)	-0.58	0.105	-1.21
SRSF6 (UniProt Q13247)	-0.598	1.75	1.04
HLTF (UniProt Q14527)	-0.308	-0.245	-0.0608
MRPL42 (UniProt Q9Y6G3)	-1.61	-1.07	-0.921
FAM129A (UniProt Q9BZQ8)	0.444	-0.167	-0.0302
